In paper PMC9226124, “Macrocycle-stabilization of its interaction with 14-3-3 increases plasma membrane localization and activity of CFTR” (Nature Communications, 2022):
Several values for one entry are separate records, joined by “and”; a condition that tells them apart may be missing. Identical values can stand only once. Entries after “also recorded” stand apart in the source; their conditions may differ.

Key:
[1] = biological target: T1, F508del-CFTR in BHK cells (Homo sapiens, UniProt P13569, DEL508-508); experiment: FLIPR membrane potential (FMP) assay; assay type: cell-based, hamster; conditions: for CFTR function (FMP assay): BHK cells, 24 h, 20 μM compound, genistein, forskolin; for FMP assay signal (Fig5c) / FMP assay signal (Fig5b): individual replicates
T1 construct: expressed in transfected cells; host or cells: baby hamster kidney (BHK) cells
Protocol: Twelve (12) validated hit compounds from the initial screening and focused validation library were tested for their effect on F508del-CFTR trafficking. Baby hamster kidney (BHK) cells expressing 3HA-tagged F508del-CFTR were treated for 24 h with 10 μM compound. After fixation of the cells, a combination of mouse monoclonal anti-HA antibody and anti-mouse IgG conjugated with FITC was used to detect F508del-CFTR that had trafficked to the plasma membrane as described previously. […] Additionally, a fluorescence imaging plate reader (FLIPR) Membrane Potential (FMP) assay was performed. This assay measures real-time membrane potential changes associated with ion channel activation and ion transporter proteins. F508del-CFTR expressing BHK cells were incubated for 24 h with 20 μM compound before treatment with the potentiator genistein, FMP dye, and activator forskolin. The fluorescence intensity is thus a measure for the function of the CFTR protein in the plasma membrane of these cells. The F508del-CFTR corrector VX-809 (lumacaftor) and the triple combination Trikafta® were used as positive controls in this assay. […] Another cellular assay was performed with the Ussing Chamber, which detects and quantifies transport of ions across epithelial tissue. F508del-CFTR expressing cystic fibrosis epithelial (CFBE) cells were treated for 18 h with 20 μM CY007424. After forskolin and genistein stimulation, the short-circuit current of the cells was measured.
Fig. 5 Cellular activity of macrocycles stabilizing the 14-3-3/CFTR PPI. a Surface expression of 3HA-tagged F508del-CFTR in BHK cells incubated for 24 h with 10 μM compound and treated with mouse monoclonal anti-HA antibody and anti-mouse IgG conjugated with FITC (n = 4 or n = 3 biological replicates, bars represent the mean). b, c FLIPR Membrane Potential (FMP) assay of F508del-CFTR expressing BHK cells treated for 24 h with the macrocycles (b, n = 6 biological replicates, bars represent the mean) or with CY007424 and/or VX-809 or Trikafta®, with and without CFTR inhibitor INH172 (c, n = 4 biological replicates, bars represent the mean). d Using chamber experiment of F508del-CFTR expressing CFBE cells treated for 18 h with CY007424, VX-809, or Trikafta® or in combinations. CFTR activity is assayed by measurement of short-circuit current of cells after stimulation by forskolin and the potentiator genistein (n = 3 or n = 6 biological replicates, bars represent the mean). Source data are provided as a Source Data file.
The FLuorescence Imaging Plate Reader (FLIPR) Membrane Potential (FMP) assay is based on the technique developed by Van Goor et al.[30] F508del-CFTR expressing baby hamster kidney (BHK) cells were incubated with the compounds for 24 h at 37 °C. The growth medium was removed from the cells by inverting the plate and FMP dye (Molecular Devices, Part #R8042) including the potentiator genistein (Sigma, G6649) was added back in 70 μl of low Cl^- containing buffer (160 mM NaGluconate, 4.5 mM KCl, 2 mM CaCl2, 1 mM MgCl2, 10 mM D-Glucose, 10 mM HEPES (pH7.4)). The plates were incubated for 5 min at RT before activation of CFTR in the plate reader (SynergyMX) with the addition of 14 µL of FMP dye in low Cl^- buffer containing 6x forskolin (Sigma, F6886) following a 2 min baseline read. Fluorescence intensity was monitored for 5 min following CFTR activation. Reported is the rate of fluorescence intensity change over time.

[2] = biological target: T2, 14-3-3/full-length CFTR interaction (Homo sapiens, UniProt P13569, DEL508-508); experiment: Immunoprecipitation (pull-down) from HEK293 cells expressing F508del-CFTR; assay type: cell-based; conditions: 24 h, 10 μM
T2 construct: expressed in transfected cells; host or cells: HEK 293 cells expressing F508del-CFTR (Carlile et al. 2015)
Protocol: Background polarization was subtracted from all values, n = 3 technical replicates. g Immunoprecipitation study to show the effect of CY007424 on the interaction between of CFTR and 14-3-3 proteins. CFTR and separately 14-3-3 immunoprecipitation from HEK293 cells expressing F508del-CFTR after 24 h of CY007424 (10μM) (424) or vehicle alone (CON). LYS: cellular lysate prior to preclear, SUP: supernatant after specific bead incubation, PC: second preclear, LW: last wash after the immunoprecipitation IP are the specific antibody beads. IP, upper blot: probed with CFTR AB, lower blot: probed with 14-3-3 AB. Source data are provided as a Source Data file.
CFTR monoclonal-mAb (M3A7, ab270238 abcam) and 14-3-3 monoclonal-Rbt-Ab (Y62, ab32560 abcam) were separately covalently linked to Protein A–Sepharose (Pharmacia, NJ, U.S.A.) by cross-linking with dimethyl pimelimidate (DMP) utilizing standard procedures.
Briefly, Protein A–Sepharose beads were washed two times in 0.2 M sodium borate, pH 9.0 for 5 min each. The beads were then mixed with antibody (for 1 mL of beads use 0.5 mg of antibody). These were placed on a rotator and mixed continuously for 2 h at room temperature (RT). The beads were washed with sodium borate twice, followed by one wash with 0.2 M triethanolamine, pH 8.5. An equal volume of 40 mM DMP in 0.2 M triethanolamine was added. The mixture was mixed for 1 h at RT and the beads then collected. The beads were incubated in 0.2 M ethanolamine, pH 8.2 for 5 min at RT. Beads were washed with the sodium borate solution, and stored at 4 °C until use. Beads were rinsed in lysis buffer before use.
Once HEK 293 cells expressing F508del-CFTR (cells earlier described by Carlile et al. 2015)[29] were treated, they were harvested and immunoprecipitated as follows. Cells were washed twice in sterile TBS, trypsin-treated and transferred to a Falcon tube with media and sera and centrifuged at 800 g at RT for 5 min. Pellets were washed twice in TBS prewarmed to 37 °C and centrifuged at 800–1000 g for 5 min at 4 °C. […]

T1 sequence (P13569 with tags, fused parts or gaps DEL508-508): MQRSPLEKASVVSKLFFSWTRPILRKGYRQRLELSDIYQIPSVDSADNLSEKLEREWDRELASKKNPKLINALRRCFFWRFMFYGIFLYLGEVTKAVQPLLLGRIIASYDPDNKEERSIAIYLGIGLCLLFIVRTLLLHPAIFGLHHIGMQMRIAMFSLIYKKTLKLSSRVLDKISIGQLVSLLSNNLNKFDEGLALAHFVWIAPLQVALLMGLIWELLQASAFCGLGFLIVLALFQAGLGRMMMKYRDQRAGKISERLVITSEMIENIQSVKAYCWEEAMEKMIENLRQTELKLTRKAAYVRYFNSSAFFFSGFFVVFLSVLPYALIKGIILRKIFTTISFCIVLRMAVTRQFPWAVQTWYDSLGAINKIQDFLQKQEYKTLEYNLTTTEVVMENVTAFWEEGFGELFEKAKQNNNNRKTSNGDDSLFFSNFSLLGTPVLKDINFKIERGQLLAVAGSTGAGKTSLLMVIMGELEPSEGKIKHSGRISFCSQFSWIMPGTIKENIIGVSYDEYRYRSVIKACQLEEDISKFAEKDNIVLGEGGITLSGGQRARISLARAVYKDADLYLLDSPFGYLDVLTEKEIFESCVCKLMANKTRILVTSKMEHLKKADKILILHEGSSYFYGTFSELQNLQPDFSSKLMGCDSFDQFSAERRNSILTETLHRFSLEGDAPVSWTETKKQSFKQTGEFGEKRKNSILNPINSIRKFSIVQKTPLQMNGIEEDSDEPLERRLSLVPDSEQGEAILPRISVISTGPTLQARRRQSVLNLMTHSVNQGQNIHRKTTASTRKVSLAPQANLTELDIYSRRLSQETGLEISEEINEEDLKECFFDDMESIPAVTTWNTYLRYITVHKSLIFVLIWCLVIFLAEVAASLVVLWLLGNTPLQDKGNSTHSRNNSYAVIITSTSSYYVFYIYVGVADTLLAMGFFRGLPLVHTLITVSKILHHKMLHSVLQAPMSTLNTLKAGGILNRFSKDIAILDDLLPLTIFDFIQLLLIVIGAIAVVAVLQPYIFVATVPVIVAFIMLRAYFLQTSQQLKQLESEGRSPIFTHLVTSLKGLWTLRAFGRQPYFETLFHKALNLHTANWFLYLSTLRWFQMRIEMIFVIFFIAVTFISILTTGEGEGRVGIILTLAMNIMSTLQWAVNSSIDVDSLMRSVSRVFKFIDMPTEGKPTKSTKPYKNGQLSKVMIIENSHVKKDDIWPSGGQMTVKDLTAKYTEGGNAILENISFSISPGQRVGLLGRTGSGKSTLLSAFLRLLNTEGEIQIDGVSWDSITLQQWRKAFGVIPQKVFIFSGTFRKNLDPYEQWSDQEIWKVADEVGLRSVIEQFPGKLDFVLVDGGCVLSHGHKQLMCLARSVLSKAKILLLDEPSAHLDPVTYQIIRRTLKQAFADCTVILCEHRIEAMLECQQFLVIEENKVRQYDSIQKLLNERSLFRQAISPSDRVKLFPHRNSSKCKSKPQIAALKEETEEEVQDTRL
T2 sequence (P13569 with tags, fused parts or gaps DEL508-508): as above

CFTR function (FMP assay) [1] | Compound | FMP assay signal (Fig5c) ([1]; Compound alone) | FMP assay signal (Fig5c) ([1]; With CFTR-inh172) | FMP assay signal (Fig5b) [1] | stabilizing effect on the 14-3-3/CFTR interaction in cells (pull-down) [2]
clear corrector function | N=C(N)NCCCC1NCc2ccccc2Sc2ccccc2CNC(=O)C(Cc2ccc(O)cc2)NC(=O)C(CCCN)NC1=O (stereo not drawn) [CY007424] | 416.179 and 423.464 and 390.429 and 379.429 | 23.036 and 3.107 and 4.393 and -13.071 | 405.536 and 378.214 and 384.321 and 349.393 and 433.679 and 385.071 | stabilizing effect; also recorded: increased CFTR binding to 14-3-3
– | NCCCCC1NCc2ccccc2Sc2ccccc2CNC(=O)C(Cc2cccc(Cl)c2)NC(=O)C(Cc2ccc(O)cc2)NC1=O (stereo not drawn) [CY007288] | – | – | 56.536 and 49 and 51.321 and 53.964 and 53 and 52.964 | –
– | N=C(N)NCCCC1NC(=O)C(CCCCN)NCc2ccccc2Sc2ccccc2CNC(=O)C(Cc2ccc(O)cc2)NC1=O (stereo not drawn) [CY001951] | – | – | 112.821 and 82.214 and 93.607 and 85.25 and 102.571 and 92.764 | –
inactive | CN1CC(=O)NC(CCCNC(=N)N)C(=O)NC(CCC(N)=O)C(=O)NC(CCCNC(=N)N)C(=O)NCc2ccccc2-c2cccc(c2)C1 (stereo not drawn) [CY007491] | – | – | 58.5 and 35.75 and 49.393 and 59.036 and 29.929 and 21.679 | did not show a stabilizing effect; also recorded: did not enhance binding of 14-3-3
– | C=CC(C)(C)OC[C@H]1O[C@H](O[C@@H]2C3=C([C@H](C)COC(C)=O)C[C@H](O)[C@]3(C)/C=C3/[C@@H](COC)CC[C@H]3[C@@H](C)[C@H]2O)[C@H](O)[C@@H](OC(C)=O)[C@@H]1O [FC-A, fusicoccin A, reference compound] | 170.429 and 204.929 and 173.75 and 189.679 | 23.571 and 18.107 and 23.429 and 27.536 | 224.714 and 247.893 and 215.429 and 224.357 and 209.61 and 238.08 | –
inactive | CC1NC(=O)C(CCCNC(=N)N)NC(=O)C2CCCN2Cc2cccc(c2)-c2ccccc2CNC(=O)C(CCCNC(=N)N)NC1=O (stereo not drawn) [CY007476] | – | – | 153.964 and 148.571 and 156.714 and 190.464 and 184.357 and 154.25 | did not show a stabilizing effect; also recorded: did not enhance binding of 14-3-3
– | N=C(N)NCCCC1NC(=O)C(CCC(N)=O)NC(=O)C(CCCNC(=N)N)NC(=O)C2CCCN2Cc2ccccc2Sc2ccccc2CNC1=O (stereo not drawn) [CY007502] | – | – | 13.036 and 27.929 and 39.536 and 44.036 and 44.893 and 22.781 | –
– | N=C(N)NCCCC1NC(=O)C(CCC(N)=O)NC(=O)C(CCCNC(=N)N)NC(=O)C2CCCN2Cc2cccc(c2)-c2ccccc2CNC1=O (stereo not drawn) [CY007455] | – | – | 35.786 and 28.786 and 56.25 and 44.357 and 64.929 and 56.893 | –
– | N=C(N)NCCCC1NC(=O)C(CCC(N)=O)NC(=O)C(CCCNC(=N)N)NC(=O)C2CCCN2Cc2cccc(c2)-c2ccccc2CNC1=O (stereo not drawn) [CY007458] | – | – | 121.393 and 152.286 and 131.821 and 116.107 and 106.464 and 116.643 | –
– | N=C(N)NCCCC1NC(=O)C(CCC(N)=O)NC(=O)C(CCCNC(=N)N)NC(=O)C2Cc3ccccc3CN2Cc2cccc(c2)-c2ccccc2CNC1=O (stereo not drawn) [CY007493] | – | – | 74.143 and 78.429 and 43.607 and 72 and 65.679 and 76.179 | –
– | NCCCC1NCc2ccccc2Sc2ccccc2CNC(=O)C(Cc2c[nH]c3ccccc23)NC(=O)C(Cc2ccccc2)NC1=O (stereo not drawn) [CY007345] | – | – | 99.75 and 93 and 100.071 and 96.107 and 84.214 and 89.179 | –
